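Following 48 hours of exposure in 96-well plates, responses at five concentrations were used to interpolate endpoints linearly. GI50: concentration for 50% inhibition of growth.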 Active and inactive are the calls of the source. No stated cut-off is given here; in the data, active = GI50 up to about 1.1 µM and inactive = higher.
How the values were obtained:
Assay in all cases: NCI anticancer screen, dose series, 48 h
[1] = tested on: TK-10
[2] = tested on: HT-29
[3] = tested on: 786-0
[4] = tested on: NCI-H23
[5] = tested on: HCT-15
[6] = tested on: SF-539
[7] = tested on: M14
[8] = tested on: SK-MEL-5
[9] = tested on: SK-OV-3
[10] = tested on: SF-268
[11] = tested on: COLO 205
[12] = tested on: UACC-257
[13] = tested on: CAKI-1
[14] = tested on: SF-295
[15] = tested on: SNB-19
[16] = tested on: HCC 2998
[17] = tested on: HOP-62
[18] = tested on: OVCAR-4

| Compound | GI50 [1] | GI50 [2] | GI50 [3] | GI50 [4] | GI50 [5] [µM] | GI50 [6] | GI50 [7] | GI50 [8] | GI50 [9] | GI50 [10] | GI50 [11] | GI50 [12] | GI50 [13] | GI50 [14] | GI50 [15] | GI50 [16] | GI50 [17] | GI50 [18] |
| --- | --- | --- | --- | --- | --- | --- | --- | --- | --- | --- | --- | --- | --- | --- | --- | --- | --- | --- |
| NS(=O)(=O)c1ccc(NC2=CC(=O)C(=O)c3ccccc32)cc1 | > 100 µM (inactive) | > 100 µM (inactive) | > 100 µM (inactive) | > 100 µM (inactive) | > 100 | > 100 µM (inactive) | > 100 µM (inactive) | > 100 µM (inactive) | > 100 µM (inactive) | > 100 µM (inactive) | > 100 µM (inactive) | > 100 µM (inactive) | > 100 µM (inactive) | > 100 µM (inactive) | > 100 µM (inactive) | > 100 µM (inactive) | > 100 µM (inactive) | > 100 µM (inactive) |
| O=[N+]([O-])c1ccc(/C=N/C23CC4CC(CC(C4)C2)C3)cc1 | > 100 µM (inactive) | > 100 µM (inactive) | > 100 µM (inactive) | > 100 µM (inactive) | > 100 | > 100 µM (inactive) | > 100 µM (inactive) |  | > 100 µM (inactive) | > 100 µM (inactive) | > 100 µM (inactive) | > 100 µM (inactive) | > 100 µM (inactive) | > 100 µM (inactive) | > 100 µM (inactive) | > 100 µM (inactive) | > 100 µM (inactive) | > 100 µM (inactive) |
| O=C1c2c(c3c4ccccc4n(CC4CO4)c3c3[nH]c4ccccc4c23)C(=O)N1Cc1ccccc1 (stereo unspecified) | > 100 µM (inactive) | > 100 µM (inactive) | > 100 µM (inactive) | > 100 µM (inactive) | > 100 | 37.1 µM (inactive) | > 100 µM (inactive) | > 10 µM (inactive) | > 100 µM (inactive) | > 100 µM (inactive) |  | > 100 µM (inactive) | > 100 µM (inactive) | > 100 µM (inactive) | > 100 µM (inactive) | > 100 µM (inactive) | > 100 µM (inactive) | 33 µM (inactive) |
| CC1=NN(C(=O)Cc2ccccc2)C(=O)/C1=C\c1ccc([N+](=O)[O-])cc1 | > 100 µM (inactive) | > 100 µM (inactive) | > 100 µM (inactive) | > 100 µM (inactive) | > 100 | > 100 µM (inactive) | > 100 µM (inactive) | > 100 µM (inactive) | > 100 µM (inactive) | > 100 µM (inactive) | > 100 µM (inactive) | > 100 µM (inactive) | > 100 µM (inactive) | > 100 µM (inactive) | > 100 µM (inactive) | > 100 µM (inactive) | > 100 µM (inactive) | > 100 µM (inactive) |
| N#CCN1C(=O)c2cc([N+](=O)[O-])cc3cc([N+](=O)[O-])cc(c23)C1=O | 27.7 µM (inactive) | 16.8 µM (inactive) | 11.8 µM (inactive) | 15.9 µM (inactive) | 6.71 | 14.6 µM (inactive) | 17 µM (inactive) | 15.6 µM (inactive) | 39.6 µM (inactive) | 17 µM (inactive) | 11.4 µM (inactive) | 15.1 µM (inactive) | 23.9 µM (inactive) | 30.5 µM (inactive) | 24.2 µM (inactive) | 15 µM (inactive) | 18.8 µM (inactive) | 14.8 µM (inactive) |
| CCOC(=O)CC(C)C1(C(=O)OCC)CCCCC1=O (stereo unspecified) | > 100 µM (inactive) | > 100 µM (inactive) | 55 µM (inactive) |  | 22.9 | > 100 µM (inactive) | > 100 µM (inactive) | > 100 µM (inactive) | > 100 µM (inactive) | > 100 µM (inactive) | 86.7 µM (inactive) | > 100 µM (inactive) | > 100 µM (inactive) | > 100 µM (inactive) | > 100 µM (inactive) | > 100 µM (inactive) | > 100 µM (inactive) | > 100 µM (inactive) |
| CCCOP(=S)(N1CC1)N1CC1 | > 100 µM (inactive) | > 100 µM (inactive) | > 100 µM (inactive) | > 100 µM (inactive) | > 100 | > 100 µM (inactive) | > 100 µM (inactive) | > 100 µM (inactive) | > 100 µM (inactive) | > 100 µM (inactive) | > 100 µM (inactive) | 24.8 µM (inactive) | > 100 µM (inactive) | > 100 µM (inactive) | > 100 µM (inactive) | > 100 µM (inactive) | > 100 µM (inactive) | > 100 µM (inactive) |
| CCOC(=O)c1[nH]c(COC(C)=O)c(CCCOC(C)=O)c1CCCOC(C)=O | > 100 µM (inactive) | > 100 µM (inactive) | > 100 µM (inactive) | > 100 µM (inactive) | > 100 | > 100 µM (inactive) |  |  | > 100 µM (inactive) | > 100 µM (inactive) | > 100 µM (inactive) | > 100 µM (inactive) | > 100 µM (inactive) | > 100 µM (inactive) | > 100 µM (inactive) | > 100 µM (inactive) | > 100 µM (inactive) | > 100 µM (inactive) |
| CC1=CC=C2C(C)(C)CC[C@@H]3OC(=O)[C@H]1[C@]23C | > 100 µM (inactive) | > 100 µM (inactive) | > 100 µM (inactive) | > 100 µM (inactive) |  | > 100 µM (inactive) | > 100 µM (inactive) | > 100 µM (inactive) | > 100 µM (inactive) | > 100 µM (inactive) | > 100 µM (inactive) | > 100 µM (inactive) | > 100 µM (inactive) | > 100 µM (inactive) | > 100 µM (inactive) | > 100 µM (inactive) | > 100 µM (inactive) | > 100 µM (inactive) |
| Cc1cc2c(cc1C)[n+]([O-])c(C(=O)C/C(=N/NC(=S)NN)C(=O)Nc1cccc(C(F)(F)F)c1)c[n+]2[O-] | > 100 µM (inactive) | > 100 µM (inactive) | > 100 µM (inactive) | > 100 µM (inactive) | > 100 | > 100 µM (inactive) | > 100 µM (inactive) | > 100 µM (inactive) | > 100 µM (inactive) | > 100 µM (inactive) | > 100 µM (inactive) | > 100 µM (inactive) | > 100 µM (inactive) | > 100 µM (inactive) | 34 µM (inactive) | > 100 µM (inactive) | > 100 µM (inactive) | > 100 µM (inactive) |
| O=C1C2C=CC(n3[nH]c(=O)n(Cc4ccccc4)c3=O)CC2C(=O)N1c1cccc(Cl)c1 (stereo unspecified) | > 100 µM (inactive) | > 100 µM (inactive) | > 100 µM (inactive) | > 100 µM (inactive) | > 100 | > 100 µM (inactive) | > 100 µM (inactive) | > 100 µM (inactive) | > 100 µM (inactive) | > 100 µM (inactive) | > 100 µM (inactive) | > 100 µM (inactive) | > 100 µM (inactive) | > 100 µM (inactive) | > 100 µM (inactive) | > 100 µM (inactive) | > 100 µM (inactive) | > 100 µM (inactive) |
| OCc1cc2c(cn1)[nH]c1ccc(NCc3ccccc3)cc12 | 30.6 µM (inactive) | 14.8 µM (inactive) | 25.2 µM (inactive) | 20 µM (inactive) | 27.2 | 30.3 µM (inactive) | 16.4 µM (inactive) | 12.2 µM (inactive) | 25.5 µM (inactive) | 20.5 µM (inactive) | 17.7 µM (inactive) | 23.3 µM (inactive) | 27.4 µM (inactive) | 22.3 µM (inactive) | 37.3 µM (inactive) | 24.8 µM (inactive) | 51.9 µM (inactive) | 26.5 µM (inactive) |
| COc1ccc(Cc2c3cc(O)c([O-])cc3cc[n+]2C)cc1 | 98.4 µM (inactive) | 52.7 µM (inactive) | 10.2 µM (inactive) | 29.8 µM (inactive) |  | 19.1 µM (inactive) | 11.4 µM (inactive) | 20.6 µM (inactive) | 41.5 µM (inactive) | 13.5 µM (inactive) | 39.1 µM (inactive) | 28.4 µM (inactive) | 8.55 µM (inactive) | 19.9 µM (inactive) | 35 µM (inactive) | 42.6 µM (inactive) | 10.3 µM (inactive) | 51.3 µM (inactive) |
| O=C1OC(c2ccccc2)=N/C1=C/NC(Cc1ccccc1)C(=O)O (stereo unspecified) | > 100 µM (inactive) | > 100 µM (inactive) | > 100 µM (inactive) | > 100 µM (inactive) | > 100 | > 100 µM (inactive) | > 100 µM (inactive) | > 100 µM (inactive) | > 100 µM (inactive) | > 100 µM (inactive) | > 100 µM (inactive) | > 100 µM (inactive) | > 100 µM (inactive) | > 100 µM (inactive) | > 100 µM (inactive) | > 100 µM (inactive) | > 100 µM (inactive) | > 100 µM (inactive) |
| N#CC(C(=O)Nc1ccccc1)C1=C(Cl)C(=O)c2ccccc2C1=O (stereo unspecified) | 21.7 µM (inactive) | 26 µM (inactive) | 14.6 µM (inactive) | 18.5 µM (inactive) | 18.5 | 15.2 µM (inactive) | 16.5 µM (inactive) | 16.1 µM (inactive) | 23.9 µM (inactive) | 15.7 µM (inactive) | 17.5 µM (inactive) | 2.05 µM (inactive) | 18 µM (inactive) | 17.9 µM (inactive) | 17.7 µM (inactive) | 18.1 µM (inactive) | 17.9 µM (inactive) | 16.9 µM (inactive) |
| CC1=CC(=O)CC2(C)CC[C@@H]3C[C@]12OC3(C)C (stereo partly specified) | > 100 µM (inactive) | > 100 µM (inactive) | > 100 µM (inactive) | > 100 µM (inactive) | > 100 | > 100 µM (inactive) | > 100 µM (inactive) | > 100 µM (inactive) | > 100 µM (inactive) | > 100 µM (inactive) | > 100 µM (inactive) | > 100 µM (inactive) | > 100 µM (inactive) | > 100 µM (inactive) | > 100 µM (inactive) | > 100 µM (inactive) | > 100 µM (inactive) | > 100 µM (inactive) |

Source: ChEMBL document CHEMBL1201862, “PubChem BioAssay data set” (2004)
